Experimental data published in PubChem BioAssay (NCI).
Where “and” joins values, the source holds several entries; their conditions need not be identical. Identical values can stand only once.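 Exposure lasted 48 hours, with cells grown in 96-well plates and compounds tested at five concentrations. Here, GI50 denotes the concentration required for 50% inhibition of growth. TGI denotes the concentration required for complete inhibition of growth.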

Assays:
Assay in all cases: inhibition of tumour cell growth, NCI panel, 48 h
A549 NSCLC = system: A549 NSCLC
BT-549 breast = system: BT-549 breast
HOP-62 NSCLC = system: HOP-62 NSCLC
HS 578T breast = system: HS 578T breast
HT29 colon = system: HT29 colon
KM20L2 colon = system: KM20L2 colon
LXFL 529 NSCLC = system: LXFL 529 NSCLC
OVCAR-3 ovarian = system: OVCAR-3 ovarian
SK-MEL-5 melanoma = system: SK-MEL-5 melanoma
TK-10 renal = system: TK-10 renal

SMILES	TGI (A549 NSCLC)	TGI (BT-549 breast) [µM]	TGI (HOP-62 NSCLC)	TGI (HS 578T breast) [µM]	TGI (HT29 colon)	TGI (KM20L2 colon)	TGI (LXFL 529 NSCLC) [µM]	TGI (OVCAR-3 ovarian)	TGI (SK-MEL-5 melanoma)	TGI (TK-10 renal)	GI50 (A549 NSCLC) [µM]	GI50 (HOP-62 NSCLC) [µM]	GI50 (HT29 colon) [µM]	GI50 (KM20L2 colon) [µM]	GI50 (OVCAR-3 ovarian) [µM]	GI50 (SK-MEL-5 melanoma) [µM]	GI50 (TK-10 renal) [µM]
COc1cc(OC(=O)c2ccccc2)cc2c1C(=O)C=CC2=O	68.4 µM	29.8	58.6 µM	69.3	39.8 µM	> 100 µM	25.5	14.2 µM	30.6 µM	32.5 µM	–	–	–	–	–	–	–
COc1cc(C[C@H]2c3cc(OC)c(OC)cc3CCN2C)c(Oc2cc3c(cc2OC)-c2c(OC)c(OC)cc4c2[C@H](C3)N(C)CC4)cc1OC	28.2 µM and 29.4 µM	13.1	24 µM and 35.6 µM	13.1	17.4 µM and 14.6 µM	13.5 µM and 7.75 µM	23.6	23.6 µM and 24.8 µM	11.1 µM and 3.58 µM	12.9 µM and 29.2 µM	15.6	19.9	4.05	2.32	11.8	1.97	15.7
Cn1cc(C(=O)NCCC(=N)N)cc1NC(=O)C1=[N+](C)C=C(NC(=O)c2cccc(C(=O)NC3=CC(C(=O)Nc4cc(C(=O)NCCC(=N)N)cn4C)=[N+](C)C3)c2)C1	> 100 µM	–	> 100 µM	–	> 100 µM	> 100 µM	> 100	> 100 µM	> 100 µM	> 100 µM	–	–	–	–	–	–	–
Clc1ccc(C2SCc3nc4ccccc4n32)c(Cl)c1 (centres undefined)	28.8 µM	–	27.5 µM	–	30.4 µM	36.3 µM	24.5	27.3 µM	20.4 µM	28.4 µM	–	–	–	–	–	–	–
CC1CCC(NC(=O)N(CCCl)N=O)CC1 (centres undefined)	56.5 µM and 149 µM	57.2	93 µM	155	109 µM	120 µM	28.7	70.4 µM	> 87.5 µM	125 µM	23.6	71.2	–	44.7	–	29.8	45.2
Cc1ccc(S(=O)(=O)OC2CSS(=O)CC2OS(=O)(=O)c2ccc(C)cc2)cc1 (centres undefined)	37.9 µM	–	36.7 µM	–	87.5 µM	32.6 µM	27.7	31.8 µM	30.1 µM	28.5 µM	–	–	–	–	–	–	–
Cc1cccc(C)c1NC(=O)C(C#N)C1=C(Cl)C(=O)c2ccccc2C1=O (centres undefined)	41.6 µM	28.2	32.9 µM	52.1	39.8 µM	50.7 µM	30	26.9 µM	26.7 µM	33.7 µM	–	–	–	–	–	–	–
Cc1cc(=O)n(-c2ccccc2C)c(C)n1	> 100 µM	–	> 100 µM	–	> 100 µM	> 100 µM	> 100	> 100 µM	> 100 µM	> 100 µM	–	–	–	–	–	–	–
